What all share (type): cell-based
Test [1] deals with PC-3 human prostate cancer cell line. In words: MTT assay, percent cell survival, PC-3. Particulars: PC-3 cells, six days after drug treatment, in µM (unit assumed). How it is done:
(§1) Polyamine- and polyamine analog-amino acid conjugates of the invention were tested for their ability to inhibit growth of various cancer cell lines. The procedures used for testing activity are similar to those used in International Patent Application WO 00/66587 and U.S. Pat. No. 5,889,061 and are described below.
(§2) Human breast cancer cell line MCF7 was grown in Richter's Improved Modified Eagle's Medium supplemented with 10% fetal bovine serum (FBS) and 2.2 g/L sodium bicarbonate. Human brain tumor cell line U251 MG-NCI was grown in Dulbecco's Modified Eagle's Medium supplemented with 10% FBS. Human lung cancer cell line A549 was grown in Ham's F-12K medium (Cellgro, Mediatech, Inc., Va.), supplemented with 10% FBS and 2 mM L-glutamine. Human colon cancer cell line HT129 was cultured in McCoy's 5A medium (Gibco, BRL, Gaithersburg, Md.) supplemented with 10% FBS. Human prostate cancer cell lines PC-3, LNCAP and DuPro were grown in RPMI 1640 Medium (Cellgro, Mediatech, Inc., Va.) supplemented with 10% FBS. […]
(§3) A conventional MTT assay was used to evaluate percent cell survival. […] A microplate reader (“EMAX”-brand, Molecular Devices, Sunnyvale, Calif.) set at 570 nm was used to determine the optical density of the cultures. Results are expressed as a ratio of the optical density in drug-treated wells to the optical density in wells treated with vehicle only.
In general terms: Formazan colour is commonly taken as a measure of viable cells.

For test [2], the system named is DuPro human prostate cancer cell line. In words: MTT assay, percent cell survival, DuPro. Set-up: unit not given beside the values. Particulars: DuPro cells, six days after drug treatment. The method, then: as §1, §2, §3
In test [3] the test system is LnCap human prostate cancer cell line. In words: MTT assay, percent cell survival, LnCap. Particulars: LnCap cells, six days after drug treatment, in µM (unit assumed). How it is done:
as §1, §2, §3

Test [4] concerns DU145 human prostate cancer cell line. Put plainly: MTT assay, percent cell survival, DU145. Particulars: DU145 cells, six days after drug treatment. Further details: unit not given beside the values. How it is done:
as §1, §2, §3

Take `CCNCCCCNCCCCNCCCCNCCCCNC(=O)CCN` [SL-11143]: in test [1], the “ID50 PC-3” value is over 31.25. Further, the “ID50 DuPro” value in test [2] is 13.75. Also, the “ID50 LnCap” value in test [3] is 6.4. In addition, the “ID50 DU145” value in test [4] is reported as 0.06.
`CCNCCCCNCCCCNCCCCNCCCCN(CC)C(=O)C(N)CCC(N)=O` (stereo not shown) [SL-11165]: the “ID50 PC-3” value in test [1] stood at 4.1. Besides, in test [2], the “ID50 DuPro” value is on record as over 31.65. Further, the “ID50 LnCap” value in test [3] was over 31.25.

The values are drawn from patent US7312244B2, “Polyamine analog-amino acid conjugates useful as anticancer agents” (Cellgate, Inc., priority 1999, dated 2007).
